Test results reported in patent US20250084039A1, “4-SUBSTITUTED AMINOISOQUINOLINE DERIVATIVES” (Purdue Research Foundation, priority 2016, published 2025).
Read-outs that look alike come from different tables or passages of the source.

Key:
FLT3 = FLT3 (Homo sapiens (Human), UniProt P36888); assay: Reaction Biology HotSpot kinase assay; type: biochemical; details: 500 nM compound; for inhibition at 0.5 µM: read-out: % inhibition of FLT3 activity
Protocol: (§1) The Reaction Biology Corporation (www.reactionbiology.com, Malvern, PA) HotSpot assay platform was used to measure kinase/inhibitor interactions exactly as previously described. Kinase and substrate were mixed in a buffer containing 20 mM HEPES pH 7.5, 10 mM MgCl2, 1 mM EGTA, 0.02% Brij35, 0.02 mg/mL BSA, 0.1 mM Na3VO4, 2 mM DTT and 1% DMSO. Single-dose of compounds (500 nM) were then added to each reaction mixture. After 20-minute incubation. ATP (Sigma) and [γ-^33P] ATP (Perkin Elmer) were added at a final total concentration of 100 μM for addition 2 hours at room temperature, followed by spotting onto P81 ion exchange cellulose chromatography paper (Whatman, Inc.). […] Percent remaining kinase activity of a vehicle (DMSO) containing kinase reaction was calculated for each kinase/inhibitor pair using Prism 5 (GraphPad).
as §1, with “1” for “DTT”, “incubation,” for “incubation.”

MV4-11 [1] = assay: Anti-proliferative effects in leukemia panel; type: cell-based; details: for IC50: Homo sapiens, MV4-11
Protocol: Molm-14 cells were the kind gift of Dr. Mark Levis from Johns Hopkins University. […] Cell lines were grown and maintained according to ATCC recommendations.
(§2) Cell lines were seeded into 96-well plates the afternoon prior to treatment. Approximately 18 hours later, compounds were semi-serially diluted in dimethyl sulfoxide (DMSO) and then growth medium, and added to cells. Plates were incubated for 72 hours prior to addition of Alamar Blue (Life Technologies. Carlsbad, CA). Plates were read after 4 additional hours of incubation at 37° C. using a Bio-Tek Synergy HT plate reader (Bio-Tek, Winooski. VT). Data was analyzed and graphed using GraphPad Prism Software (Graphpad. La Jolla, CA).

MOLM14 [2] = assay: Anti-proliferative effects in leukemia panel; type: cell-based; details: for IC50: Homo sapiens, MOLM-14
Protocol: Molm-14 cells were the kind gift of Dr. Mark Levis from Johns Hopkins University. THP-1, MV4-11, K-562 and MRC-5A cells were purchased from ATCC (ATCC, Manassas, VA). All cell lines were grown in 37° C. with 5% CO2 atmosphere with RPMI 1640 (Life technologies, Carlsbad. CA) supplemented with heat-inactivated 10% (V/V) fetal bovine serum. Cell lines were grown and maintained according to ATCC recommendations.
as §2

TRKC = TRKC (Homo sapiens (Human), UniProt Q16288); assay: Reaction Biology HotSpot kinase assay; type: biochemical; details: 500 nM compound, 100 μM radiolabeled ATP
Protocol: as §1
as §1, with “1” for “DTT”, “incubation,” for “incubation.”

c-kit = c-kit (Homo sapiens (Human), UniProt P10721); assay: Reaction Biology HotSpot kinase assay; type: biochemical; details: 500 nM compound, 100 μM radiolabeled ATP
Protocol: as §1
as §1, with “1” for “DTT”, “incubation,” for “incubation.”

MV4-11 [3] = assay: Activity against AML cell line MV4-11 (CellTiter-Blue, 72 h); type: cell-based; details: Homo sapiens, MV4-11, 72 h; read-out: IC50 against MV4-11/uM
Protocol: Cells were added to 96 well plates at 2000 cells per well for adherent lines and 4000 cells per well for suspension lines and kept in an incubator overnight. The following day the plates were treated with compounds to give rise to the final concentrations of; 100 μM, 10 μM, 5 μM 1 μM, 500 nM, 100 nM, 10 nM, […]. The plates were then stored in the incubator for 72 hours. On the third day the cells were assayed with 20 μL of CellTiter—Blue Cell Viability Assay per well and were incubated for 4 hours. After 4 hours' fluorescence intensity was taken on a plate reader: Excitation: 560/10 Emission: 590/10. IC50 analysis was performed on GraphPad Prism 7.

MV4-11 [4] = assay: IC50 proliferation assay (Alamar Blue, 72 h); type: cell-based; details: read-out: IC50 (proliferation inhibition) Cell line - MV4-11
Protocol: as §2, with “IC50 proliferation assay—Cell” for “Cell”, “lines and primary cells” for “lines”, “Technologies,” for “Technologies.”, “Winooski,” for “Winooski.”, “(Graphpad,” for “(Graphpad.”, “Jolla.” for “Jolla,”
(§3) IC50 (proliferation inhibition) against leukemia cell lines MV4-11 and K562. […] MiaPaca-2 (Pancreatic cell line), HLY-1 (Lymphoma cell line), MV4-11 (AML, cell line) and K562 (CML cell line).

K562 = assay: IC50 proliferation assay (Alamar Blue, 72 h); type: cell-based
Protocol: as §2, with “IC50 proliferation assay—Cell” for “Cell”, “lines and primary cells” for “lines”, “Technologies,” for “Technologies.”, “Winooski,” for “Winooski.”, “(Graphpad,” for “(Graphpad.”, “Jolla.” for “Jolla,”
as §3

MV-4-11 = assay: Proliferation inhibition at single concentration (CellTiter-Blue); type: cell-based; details: 1 μM compound
HCT116 = assay: as above; type: cell-based; details: 1 μM compound
HeLa = assay: as above; type: cell-based; details: 1 μM compound
Protocol: (§4) Plates were then treated with compound diluted in dimethyl sulfoxide (DMSO) as well as a DMSO control the following day for 72 hours. After this time the plates were then treated with 10 μL of CellTiter-Blue Cell Viability Assay (Promega, Madison, WI) for 4 hours. Then the plates were read on a plate reader (Bio-Tek, Winooski, VT). Data was analyzed on Excel as a percent of the DMSO vehicle.
(§5) Antiproliferative activities against AML cell line, MV4-11 (a FLT3-driven cell line) and three other solid tumors (MCF7, breast, HCT116, colon and HeLa) have been investigated (Tables 6A and 6B and FIG. 10).

MCF-7 = assay: as above; type: cell-based; details: 1 μM compound
Protocol: as §4, §5

MOLM14 [5] = assay: IC50 determination (proliferation assay, CellTiter-Blue); type: cell-based
Protocol: (§6) Cell lines were seeded into 96-well plates the afternoon prior to treatment. Approximately 18 hours later, compounds were diluted in dimethyl sulfoxide (DMSO) and added to cells. Plates were incubated for 72 hours and cells viability determined with CellTiter-Blue Cell Viability Assay (Promega, Madison, WI). Plates were read after 4 additional hours of incubation at 37° C. using plate reader (Bio-Tek, Winooski. VT). Data was analyzed and graphed using GraphPad Prism Software (Graphpad. La Jolla, CA). […]

MV4-11 [6] = assay: as above; type: cell-based
Protocol: as §6

FGFR1 = FGFR1 (Homo sapiens (Human), UniProt P11362); assay: Reaction Biology HotSpot kinase assay; type: biochemical; details: 500 nM compound; read-out: Percentage kinase inhibition FGFR1
Protocol: as §1
as §1, with “1” for “DTT”, “incubation,” for “incubation.”

c-Src = c-Src (Homo sapiens (Human), UniProt P12931); assay: Reaction Biology HotSpot kinase assay; type: biochemical; details: 500 nM compound; read-out: Percentage kinase inhibition c-Src
Protocol: as §1
as §1, with “1” for “DTT”, “incubation,” for “incubation.”

[7] = read-out: Anti-proliferative effects in leukemia panel (μM) MV4-11
[8] = Homo sapiens, K562, 72 h, read-out: IC50 (proliferation inhibition) Cell line - K562
[9] = Homo sapiens, K562, Table 18, read-out: Inhibition of proliferation of K562 cell lines (CML)

FLT3, sequence (P36888 27-993): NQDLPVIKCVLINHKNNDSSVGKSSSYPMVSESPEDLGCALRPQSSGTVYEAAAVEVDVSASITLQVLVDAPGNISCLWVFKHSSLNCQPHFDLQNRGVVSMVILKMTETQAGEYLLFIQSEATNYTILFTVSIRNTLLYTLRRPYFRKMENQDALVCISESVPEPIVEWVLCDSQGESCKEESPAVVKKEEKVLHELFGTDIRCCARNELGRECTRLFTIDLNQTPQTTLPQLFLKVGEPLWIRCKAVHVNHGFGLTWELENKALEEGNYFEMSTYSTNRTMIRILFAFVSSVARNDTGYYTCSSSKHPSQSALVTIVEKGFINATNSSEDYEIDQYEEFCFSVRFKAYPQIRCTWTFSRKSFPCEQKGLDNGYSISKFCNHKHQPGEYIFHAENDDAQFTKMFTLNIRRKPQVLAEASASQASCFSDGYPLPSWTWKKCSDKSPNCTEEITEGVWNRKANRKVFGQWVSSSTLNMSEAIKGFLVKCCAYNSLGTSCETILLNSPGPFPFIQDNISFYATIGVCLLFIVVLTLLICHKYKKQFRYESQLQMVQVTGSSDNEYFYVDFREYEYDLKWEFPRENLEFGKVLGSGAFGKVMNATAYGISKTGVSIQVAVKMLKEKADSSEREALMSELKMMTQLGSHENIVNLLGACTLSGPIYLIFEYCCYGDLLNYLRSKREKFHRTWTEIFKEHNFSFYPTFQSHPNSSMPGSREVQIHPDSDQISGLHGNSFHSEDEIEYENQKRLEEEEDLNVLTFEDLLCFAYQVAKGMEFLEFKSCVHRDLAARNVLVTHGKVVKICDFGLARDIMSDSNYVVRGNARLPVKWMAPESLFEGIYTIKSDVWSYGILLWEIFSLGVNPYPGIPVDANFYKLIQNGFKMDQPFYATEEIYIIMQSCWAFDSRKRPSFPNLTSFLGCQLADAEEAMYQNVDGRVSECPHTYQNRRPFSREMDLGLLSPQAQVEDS
c-kit, sequence (P10721 26-976): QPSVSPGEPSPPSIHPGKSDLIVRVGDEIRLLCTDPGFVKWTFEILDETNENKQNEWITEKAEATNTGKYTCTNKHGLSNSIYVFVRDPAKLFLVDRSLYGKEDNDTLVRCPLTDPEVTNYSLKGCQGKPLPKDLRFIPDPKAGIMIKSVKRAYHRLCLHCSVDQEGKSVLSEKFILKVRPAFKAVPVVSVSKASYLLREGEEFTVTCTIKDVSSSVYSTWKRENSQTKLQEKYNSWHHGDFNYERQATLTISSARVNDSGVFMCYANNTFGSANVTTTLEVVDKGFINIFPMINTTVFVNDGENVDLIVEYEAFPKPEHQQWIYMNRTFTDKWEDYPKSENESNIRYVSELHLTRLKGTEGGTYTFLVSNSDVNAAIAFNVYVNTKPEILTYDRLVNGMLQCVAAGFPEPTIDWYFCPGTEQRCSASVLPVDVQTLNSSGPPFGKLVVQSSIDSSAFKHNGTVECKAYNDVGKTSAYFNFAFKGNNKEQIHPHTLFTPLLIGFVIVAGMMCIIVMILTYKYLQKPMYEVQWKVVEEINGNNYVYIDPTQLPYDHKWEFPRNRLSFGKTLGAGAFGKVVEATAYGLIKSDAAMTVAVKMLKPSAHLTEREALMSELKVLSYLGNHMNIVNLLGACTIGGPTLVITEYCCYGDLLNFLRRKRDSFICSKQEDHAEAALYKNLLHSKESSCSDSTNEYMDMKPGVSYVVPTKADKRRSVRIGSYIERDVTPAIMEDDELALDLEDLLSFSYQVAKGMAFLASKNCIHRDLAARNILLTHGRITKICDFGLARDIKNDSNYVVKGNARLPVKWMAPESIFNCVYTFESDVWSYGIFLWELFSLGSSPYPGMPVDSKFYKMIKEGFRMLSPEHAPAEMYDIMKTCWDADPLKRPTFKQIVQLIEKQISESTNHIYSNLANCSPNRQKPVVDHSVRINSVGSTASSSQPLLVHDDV
TRKC, sequence (Q16288 32-839): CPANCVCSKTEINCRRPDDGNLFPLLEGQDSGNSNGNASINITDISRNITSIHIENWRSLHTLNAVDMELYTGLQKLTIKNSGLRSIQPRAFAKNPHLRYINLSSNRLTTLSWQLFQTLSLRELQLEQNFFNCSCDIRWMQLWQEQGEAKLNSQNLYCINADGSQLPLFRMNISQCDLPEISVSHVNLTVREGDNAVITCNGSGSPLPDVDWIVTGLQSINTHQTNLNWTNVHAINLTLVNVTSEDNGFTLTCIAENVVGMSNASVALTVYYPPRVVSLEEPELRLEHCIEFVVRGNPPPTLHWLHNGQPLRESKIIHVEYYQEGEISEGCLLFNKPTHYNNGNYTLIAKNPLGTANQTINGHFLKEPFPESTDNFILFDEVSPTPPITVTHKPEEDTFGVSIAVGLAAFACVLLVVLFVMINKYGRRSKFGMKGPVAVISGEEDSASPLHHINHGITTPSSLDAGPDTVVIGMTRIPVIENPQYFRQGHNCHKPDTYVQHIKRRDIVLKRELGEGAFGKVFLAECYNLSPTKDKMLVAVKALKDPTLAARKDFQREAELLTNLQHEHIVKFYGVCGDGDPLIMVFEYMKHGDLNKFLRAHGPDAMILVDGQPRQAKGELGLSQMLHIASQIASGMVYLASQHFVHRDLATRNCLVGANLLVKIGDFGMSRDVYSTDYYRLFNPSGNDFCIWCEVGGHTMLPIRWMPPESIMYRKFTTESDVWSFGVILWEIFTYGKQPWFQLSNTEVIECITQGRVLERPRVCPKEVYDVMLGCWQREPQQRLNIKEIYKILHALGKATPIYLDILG
c-Src, sequence (P12931 whole entry, looked up): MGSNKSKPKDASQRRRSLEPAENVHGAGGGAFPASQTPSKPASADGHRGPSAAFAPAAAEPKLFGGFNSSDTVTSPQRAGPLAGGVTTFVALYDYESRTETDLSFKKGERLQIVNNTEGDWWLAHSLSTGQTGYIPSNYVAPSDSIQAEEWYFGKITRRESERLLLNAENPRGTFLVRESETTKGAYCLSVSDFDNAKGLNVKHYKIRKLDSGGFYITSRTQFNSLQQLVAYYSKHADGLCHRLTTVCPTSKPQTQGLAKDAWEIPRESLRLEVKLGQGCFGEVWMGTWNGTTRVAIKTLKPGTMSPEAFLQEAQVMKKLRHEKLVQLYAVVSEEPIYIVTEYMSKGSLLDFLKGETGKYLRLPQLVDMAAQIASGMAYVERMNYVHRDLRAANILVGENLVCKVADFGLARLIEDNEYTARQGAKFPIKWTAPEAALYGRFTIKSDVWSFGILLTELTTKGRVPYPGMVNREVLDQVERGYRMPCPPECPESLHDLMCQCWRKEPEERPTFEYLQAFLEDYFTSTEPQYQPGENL
FGFR1, sequence (P11362 22-822): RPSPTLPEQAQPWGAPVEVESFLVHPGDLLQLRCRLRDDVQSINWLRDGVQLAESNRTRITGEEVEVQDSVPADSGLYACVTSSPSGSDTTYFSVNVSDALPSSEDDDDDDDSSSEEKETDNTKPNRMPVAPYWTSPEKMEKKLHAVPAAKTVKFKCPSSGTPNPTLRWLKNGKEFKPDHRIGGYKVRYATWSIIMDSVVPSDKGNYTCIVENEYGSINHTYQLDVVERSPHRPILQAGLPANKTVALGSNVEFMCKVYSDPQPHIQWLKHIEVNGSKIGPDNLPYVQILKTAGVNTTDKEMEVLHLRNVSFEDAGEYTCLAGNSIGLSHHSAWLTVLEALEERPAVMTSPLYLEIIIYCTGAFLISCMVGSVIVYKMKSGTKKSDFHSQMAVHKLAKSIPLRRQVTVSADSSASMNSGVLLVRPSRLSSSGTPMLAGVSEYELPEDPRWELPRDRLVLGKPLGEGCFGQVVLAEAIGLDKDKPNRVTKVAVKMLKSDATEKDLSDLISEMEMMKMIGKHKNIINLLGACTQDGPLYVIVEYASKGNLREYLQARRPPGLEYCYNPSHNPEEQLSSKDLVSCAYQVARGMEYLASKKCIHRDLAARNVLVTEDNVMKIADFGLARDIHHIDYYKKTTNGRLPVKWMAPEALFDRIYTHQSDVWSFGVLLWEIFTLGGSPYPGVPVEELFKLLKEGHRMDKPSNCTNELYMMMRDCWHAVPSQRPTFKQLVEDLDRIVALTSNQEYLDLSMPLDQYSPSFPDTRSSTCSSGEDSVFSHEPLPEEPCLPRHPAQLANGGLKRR

| Compound | IC50 (MV4-11 [1]; [7]) [µM] | IC50 (MOLM14 [2]) [µM] | inhibition at 0.5 µM (TRKC) [%] | inhibition at 0.5 µM (c-kit) [%] | anti-proliferative activity in words, MV4-11 / AML cell lines (MV4-11 [1]) | further results |
| --- | --- | --- | --- | --- | --- | --- |
| CC1(COc2ccc3c(c2)ncn3-c2ccc3cccc(N4CCC(N)CC4)c3n2)COC1 [Crenolanib, reference compound] | 0.005 ± 0.001 | 0.004 | – | – | – | inhibition at 0.5 µM (FLT3): 99%; IC50 (MV4-11 [1]; read-out: anti-proliferative IC50): 0.005 µM |
| N#Cc1ccc(C#Cc2c(N)ncc3ccc(Cl)cc23)cc1 [HSM1611, 4-((3-amino-6-chloroisoquinolin-4-yl)ethynyl)benzonitrile] | > 5 | > 5 | 16 | 63 | ineffective | IC50 (MV4-11 [3]): 0.84 µM; anti-proliferative activity in words, MOLM-14 (MOLM14 [2]): ineffective |
| Nc1ncc2ccc(Cl)cc2c1C#Cc1ccc(C2=NC(C3CC3)CN2)cc1 (stereo not shown) [HSM1703] | 0.3 ± 0.2 | 0.1 | 49 | 60 | – | – |
| Nc1ncc2ccc(Cl)cc2c1C#Cc1ccc(C2=NCCN2CCN2CCCCC2)cc1 [HSM1721] | 0.08 ± 0.02 | 0.3 | 52 | 80 | – | IC50 (MV4-11 [3]): 0.015 µM |
| CC1(C)CNC(c2ccc(C#Cc3c(N)ncc4ccc(Cl)cc34)cc2)=N1 [HSM1743] | 0.07 ± 0.02 | 0.3 | 44 | 78 | – | – |
| Nc1ncc2[nH]ccc2c1C#Cc1ccc(C2=NCCN2)cc1 [HSM1781] | > 5 | > 5 | – | – | ineffective | – |
| Nc1ncc(C#Cc2ccc(C3=NCCN3)cc2)c2ccccc12 [HSM1795, 4-((4-(4,5-dihydro-1H-imidazol-2-yl)phenyl)ethynyl)isoquinolin-1-amine] | – | – | – | – | – | IC50 (MV4-11 [4]; Homo sapiens, MV4-11, 72 h): 100 nM |
| Nc1nnc2ccccc2c1C#Cc1ccc(C2=NCCN2)cc1 [HSM1796] | > 5 | > 5 | 7 | 3 | ineffective | – |
| Nc1nccc(Cl)c1C#Cc1ccc(C2=NCCN2)cc1 [HSM1798] | > 5 | > 5 | 11 | 15 | ineffective | – |
| C(#Cc1cncc2ccccc12)c1ccc(C2=NCCN2)cc1 [HSM1813] | > 5 | > 5 | 17 | 39 | not a potent inhibitor | – |
| N=C(NO)c1cccc(C#Cc2c(N)ncc3ccc(Cl)cc23)c1 [HSM1819] | 0.02 ± 0.01 | 0.06 | 80 | 82 | very potent | – |
| N=C(NO)c1ccc(C#Cc2c(N)ncc3ccc(Cl)cc23)cc1 [HSM1820] | 0.04 ± 0.01 | 0.05 | 74 | 86 | – | – |
| Cc1ccc(C(=O)NCc2ccc(OCCN(C)C)cc2)cc1C#Cc1c(N)ncc2ccc(Cl)cc12 [HSN315] | – | – | – | – | – | % inhibition of FLT3 activity (FLT3): 32%; IC50 (K562; 72 h, read-out: IC50 (proliferation inhibition) Cell line - K562): 203 nM; IC50 (K562; Table 18, read-out: Inhibition of proliferation of K562 cell lines (CML)): 203 ± 0.1 nM; IC50 (MV4-11 [4]; 72 h): 540 nM; Percent inhibition of proliferation MV-4-11 (MV-4-11): 83%; Percent inhibition of proliferation HCT116 (HCT116): 66%; Percent inhibition of proliferation HeLa (HeLa): 100%; Percent inhibition of proliferation MCF-7 (MCF-7): 100%; IC50 (MOLM14 [5]): 523 ± 6.4 nM; IC50 (MV4-11 [6]): 549 ± 7.4 nM; proliferation inhibition in words, MV4-11 / AML (MV4-11 [6]): only moderate inhibitors |
| Cc1ccc(C(=O)NCc2ccc(OCCN(C)C)cc2)cc1C#Cc1cc(N)nc2ccccc12 [HSN316, 3-((2-aminoquinolin-4-yl)ethynyl)-N-(4-(2-(dimethylamino)ethoxy)benzyl)-4-methylbenzamide] | – | – | – | – | – | IC50 (K562; [8]): 759 nM; IC50 (K562; [9]): 913 ± 0.1 nM; IC50 (MV4-11 [4]; Homo sapiens, MV4-11, 72 h): 759 nM |
| Cc1ccc(C(=O)Nc2ccc(CN3CCN(C)CC3)c(C(F)(F)F)c2)cc1C#Cc1c(N)ncc2ccccc12 [HSN352, 3-((3-aminoisoquinolin-4-yl)ethynyl)-4-methyl-N-(4-((4-methylpiperazin-1-yl)methyl)-3-(trifluoromethyl)phenyl)benzamide] | – | – | – | 78 | – | inhibition at 0.5 µM (FGFR1): 100%; inhibition at 0.5 µM (FLT3): 93%; inhibition at 0.5 µM (c-Src): 100%; IC50 (K562; [8]): 2 nM; IC50 (K562; [9]): 2.4 ± 0.06 nM; IC50 (MV4-11 [4]; Homo sapiens, MV4-11, 72 h): 3 nM; IC50 (MOLM14 [5]; Homo sapiens, MOLM-14): 3.01 ± 0.1 nM; IC50 (MV4-11 [6]; Homo sapiens, MV4-11): 3.09 ± 0.1 nM |
| CC(C)(C)c1cc(NC(=O)Nc2ccc(-c3cn4c(n3)sc3cc(OCCN5CCOCC5)ccc34)cc2)no1 [Quizartinib, quizartinib, reference compound] | 0.001 ± 0.001 | 0.001 ± 0.001 | – | – | – | – |
| (E)-4-(2-(3-amino-6-chloroisoquinolin-4-yl)vinyl)-N-hydroxybenzimidamide [HSM1859] | – | – | – | – | – | % inhibition of TrkC (TRKC): 42%; % inhibition of c-Kit (c-kit): 62% |
